# Values of other authors, collected in patent publication US20100049492A1, “METHOD AND APPARATUS FOR MODELING SKIN SENSITIZATION” (Entelos, Inc., priority 2006, published 2010).
# Test system: lymph node (LN) proliferation
# Details: categories based on data available in the public domain
row,Compound,chemical category (skin sensitizer strength)
1,Nc1ccc(C(=O)O)cc1 [PABA],non-sensitizers
2,CCCCCCCC/C=C\CCCCCCCC(=O)OCCOCC(OCCO)C1OCC(OCCO)C1OCCO (stereo not drawn) [Tween 80],non-sensitizers
3,O=C/C=C/c1ccccc1 [cinnamic aldehyde],moderate sensitizers
4,Oc1ccc(O)cc1 [hydroquinone],strong sensitizers
5,CC=Cc1ccc(O)c(OC)c1 [isoeugenol],moderate sensitizers
6,CCO/C=C1\N=C(c2ccccc2)OC1=O [oxazalone],strong sensitizers
